Test results published in article PMC5408233, “Marine Cyclic Guanidine Alkaloids Monanchomycalin B and Urupocidin A Act as Inhibitors of TRPV1, TRPV2 and TRPV3, but not TRPA1 Receptors” (Marine Drugs, 2017).
Like-named read-outs stand apart in the source and are kept apart here.

How the values were obtained:
[1] = molecular target: T1, rat TRPV1 (rTRPV1) (Rattus norvegicus, UniProt O35433); test: Fluo-4 intracellular calcium assay, inhibition of capsaicin-induced [Ca2+] response in CHO cells expressing rTRPV1; type: cell-based
T1 construct: expressed in transfected cells
T1 sequence (O35433 whole entry): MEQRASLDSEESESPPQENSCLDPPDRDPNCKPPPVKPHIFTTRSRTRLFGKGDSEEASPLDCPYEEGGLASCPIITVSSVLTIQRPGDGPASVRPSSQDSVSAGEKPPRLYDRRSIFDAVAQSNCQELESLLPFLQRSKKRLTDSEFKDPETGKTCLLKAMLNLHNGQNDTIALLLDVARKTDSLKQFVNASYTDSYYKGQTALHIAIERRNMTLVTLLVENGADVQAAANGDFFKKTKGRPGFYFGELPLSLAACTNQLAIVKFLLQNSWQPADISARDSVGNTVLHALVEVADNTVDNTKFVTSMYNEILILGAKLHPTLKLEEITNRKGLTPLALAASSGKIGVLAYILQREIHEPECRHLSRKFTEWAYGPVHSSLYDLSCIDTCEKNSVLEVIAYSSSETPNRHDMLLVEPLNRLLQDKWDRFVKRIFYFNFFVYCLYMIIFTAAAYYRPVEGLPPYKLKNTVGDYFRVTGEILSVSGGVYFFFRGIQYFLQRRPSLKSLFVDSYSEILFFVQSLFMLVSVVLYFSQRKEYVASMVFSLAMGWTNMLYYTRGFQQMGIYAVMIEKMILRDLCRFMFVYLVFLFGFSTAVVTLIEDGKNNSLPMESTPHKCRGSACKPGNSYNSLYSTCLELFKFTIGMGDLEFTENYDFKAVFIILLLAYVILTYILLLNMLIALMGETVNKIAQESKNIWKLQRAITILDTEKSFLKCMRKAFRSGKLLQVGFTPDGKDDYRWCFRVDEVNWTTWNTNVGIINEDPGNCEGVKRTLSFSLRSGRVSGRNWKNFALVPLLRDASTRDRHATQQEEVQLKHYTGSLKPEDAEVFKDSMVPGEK
Experimental: (§1) The guanidine alkaloids (1–4) were tested on inhibitory activities against rTRPV1 (Figure 2A), mTRPV2 (Figure 2B), hTRPV3 (Figure 2C) and rTRPA1 receptors expressed in CHO (Chinese hamster ovary) cells in a Fluo-4–based intracellular calcium assay.
(§2) Figure 2 Dose-response curves for monanchomycalin B (1), urupocidin A (2), semi-synthetic urupocidin A derivatives (3, 4) inhibitory activity on agonist-induced [Ca^2+] responses in CHO cells expressing rTRPV1 (A); mTRPV2 (B); hTRPV3 (C). Responses were measured as the pseudo-ratio (ΔFI/FI) determined using the following formula ΔFI/FI = (FI-FIbase)/FIbase, where FI is the measured peak fluorescence intensity, Fbase is the fluorescence intensity in non-stimulated cells. Inhibitory activity was expressed as the percentage of the response in the control experiment (untreated by alkaloids cells). Data are expressed as mean ± s.e. (n = 4–8).
(§3) The effect of 1–4 on all the TRP-expressing cells was measured after preincubation at 37 °C for 30 min for standardization. […] Capsazepine (CZP) or non-specific blocker ruthenium red (RR) were used as a positive control for TRPV1 and for the other studied TRP receptors correspondingly.
(§4) The mouse TRPV2 gene was cloned form pancreatic beta cell line MIN6 and the CHO cell line stably expressing mouse TRPV2 was generated using T-Rex System (Thermo Fisher Scientific Inc., Waltham, MA, USA) similarly previously obtained stable cell lines for rat TRPV1, human TRPV3 and rat TRPA1 [6, 8]. Fluorescent assays were performed as described in [6]. The alkaloid’s solutions of desired concentration were obtained by serial dilution of water stock solutions (10 mg/mL) in calcium assay buffer (10 mM HEPES/HBSS, pH 7.4). The buffer alone (negative control) or serial dilutions of alkaloids 1–4 (20 μl) were added to the cells loaded with the cytoplasmic calcium indicator Fluo-4AM using Fluo-4 Direct™ Calcium Assay Kit (Thermo Fisher Scientific Inc., Waltham, MA, USA) (80 μl) and the cells were incubated 30 min at 37 °C. Changes in cell fluorescence (λex = 485 nm, λem = 520 nm) were monitored using NOVO star (BMG LABTECH, Ortenberg, Germany) before and after the addition of relevant agonist (500 nM capsaicin for rTRPV1, 300 μM 2APB for mTRPV2, 200 μM 2APB for hTRPV3, 100 μM AITC for rTRPA1) at 25 °C. Average cell responses to agonists in controls were about 60, 45, 40, 85% of the responses produced by 5 μM ionomycin for rTRPV1, mTRPV2, hTRPV3, rTRPA1 correspondingly. To avoid the spread of the data due to prolonged instrumental measurement each experimental point has control in the nearest plate wells. Curve fitting and parameter estimations were performed with Microsoft Excel 2007 (Microsoft Corporation, Redmond, WA, USA) and Origin 7.0 (OriginLab Corporation, Northampton, MA, USA). The EC50 values were determined as the concentration of test substance required to produce half-maximal decreases in [Ca^2+].

[2] = molecular target: T2, mouse TRPV2 (mTRPV2) (Mus musculus, UniProt Q9WTR1); test: Fluo-4 intracellular calcium assay, inhibition of 2APB-induced [Ca2+] response in CHO cells expressing mTRPV2; type: cell-based
T2 construct: expressed in transfected cells
T2 sequence (Q9WTR1 1-756): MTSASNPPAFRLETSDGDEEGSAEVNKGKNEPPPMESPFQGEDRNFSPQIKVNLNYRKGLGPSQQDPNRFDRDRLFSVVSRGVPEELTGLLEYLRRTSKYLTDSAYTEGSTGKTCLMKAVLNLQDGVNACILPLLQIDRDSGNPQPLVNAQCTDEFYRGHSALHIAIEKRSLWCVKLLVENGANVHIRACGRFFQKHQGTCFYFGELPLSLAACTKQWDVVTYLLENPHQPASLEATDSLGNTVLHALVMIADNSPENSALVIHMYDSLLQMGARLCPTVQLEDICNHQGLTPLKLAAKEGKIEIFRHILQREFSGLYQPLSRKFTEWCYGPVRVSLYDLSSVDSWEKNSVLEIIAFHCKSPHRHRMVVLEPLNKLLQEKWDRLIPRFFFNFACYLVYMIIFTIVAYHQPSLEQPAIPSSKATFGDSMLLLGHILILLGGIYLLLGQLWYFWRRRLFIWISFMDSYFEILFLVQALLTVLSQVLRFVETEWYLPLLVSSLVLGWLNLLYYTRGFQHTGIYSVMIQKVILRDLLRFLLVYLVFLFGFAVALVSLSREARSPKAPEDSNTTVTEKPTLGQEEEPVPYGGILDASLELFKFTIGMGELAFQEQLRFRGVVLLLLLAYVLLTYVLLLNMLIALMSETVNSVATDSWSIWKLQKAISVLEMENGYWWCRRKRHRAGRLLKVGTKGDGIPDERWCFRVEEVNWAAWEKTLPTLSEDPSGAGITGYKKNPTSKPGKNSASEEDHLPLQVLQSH
Experimental: as §1, §2, §3
The mouse TRPV2 gene was cloned form pancreatic beta cell line MIN6 and the CHO cell line stably expressing mouse TRPV2 was generated using T-Rex System (Thermo Fisher Scientific Inc., Waltham, MA, USA) similarly previously obtained stable cell lines for rat TRPV1, human TRPV3 and rat TRPA1 [6, 8]. Fluorescent assays were performed as described in [6]. […] Changes in cell fluorescence (λex = 485 nm, λem = 520 nm) were monitored using NOVO star (BMG LABTECH, Ortenberg, Germany) before and after the addition of relevant agonist (500 nM capsaicin for rTRPV1, 300 μM 2APB for mTRPV2, 200 μM 2APB for hTRPV3, 100 μM AITC for rTRPA1) at 25 °C. […] The EC50 values were determined as the concentration of test substance required to produce half-maximal decreases in [Ca^2+].

[3] = molecular target: T3, rat TRPA1 (rTRPA1) (Rattus norvegicus, UniProt Q6RI86); test: Fluo-4 intracellular calcium assay, inhibition of AITC-induced [Ca2+] response in CHO cells expressing rTRPA1; type: cell-based; details: for EC50 (µM) rTRPA1: inhibitory activity, CHO cells expressing rTRPA1, agonist 100 μM AITC, preincubation 30 min at 37 °C
T3 construct: expressed in transfected cells
T3 sequence (Q6RI86 whole entry): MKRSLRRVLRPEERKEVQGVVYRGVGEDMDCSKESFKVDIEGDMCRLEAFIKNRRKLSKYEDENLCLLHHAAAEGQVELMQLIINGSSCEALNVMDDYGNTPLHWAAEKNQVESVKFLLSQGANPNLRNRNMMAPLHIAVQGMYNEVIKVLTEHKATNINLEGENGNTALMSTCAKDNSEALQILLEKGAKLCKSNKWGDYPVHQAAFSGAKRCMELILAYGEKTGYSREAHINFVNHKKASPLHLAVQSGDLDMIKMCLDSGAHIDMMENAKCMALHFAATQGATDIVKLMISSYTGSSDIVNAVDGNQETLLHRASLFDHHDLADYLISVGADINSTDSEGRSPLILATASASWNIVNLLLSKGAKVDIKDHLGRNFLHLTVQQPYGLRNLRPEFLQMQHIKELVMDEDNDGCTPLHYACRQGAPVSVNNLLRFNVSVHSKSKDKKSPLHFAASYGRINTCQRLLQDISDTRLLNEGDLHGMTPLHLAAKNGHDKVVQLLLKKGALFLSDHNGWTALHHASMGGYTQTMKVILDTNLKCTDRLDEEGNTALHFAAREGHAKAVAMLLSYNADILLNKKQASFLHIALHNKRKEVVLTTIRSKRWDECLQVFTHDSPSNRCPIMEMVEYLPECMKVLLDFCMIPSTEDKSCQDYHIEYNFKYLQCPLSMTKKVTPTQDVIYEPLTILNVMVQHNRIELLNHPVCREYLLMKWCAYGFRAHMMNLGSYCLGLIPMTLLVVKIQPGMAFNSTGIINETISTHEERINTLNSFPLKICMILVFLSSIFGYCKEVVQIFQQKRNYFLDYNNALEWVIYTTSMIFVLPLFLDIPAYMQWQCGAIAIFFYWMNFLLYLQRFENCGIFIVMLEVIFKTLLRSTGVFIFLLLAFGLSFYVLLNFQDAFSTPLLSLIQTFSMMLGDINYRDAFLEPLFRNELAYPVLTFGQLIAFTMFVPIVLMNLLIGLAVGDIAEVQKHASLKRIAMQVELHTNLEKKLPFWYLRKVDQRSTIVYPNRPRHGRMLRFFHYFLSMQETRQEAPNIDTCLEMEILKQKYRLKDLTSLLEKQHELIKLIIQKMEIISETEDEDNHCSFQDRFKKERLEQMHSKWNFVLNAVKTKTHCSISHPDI
Experimental: as §1, §3, §4

[4] = molecular target: T4, human TRPV3 (hTRPV3) (Homo sapiens, UniProt Q8NET8); test: Fluo-4 intracellular calcium assay, inhibition of 2APB-induced [Ca2+] response in CHO cells expressing hTRPV3; type: cell-based
T4 construct: expressed in transfected cells
T4 sequence (Q8NET8 1-790): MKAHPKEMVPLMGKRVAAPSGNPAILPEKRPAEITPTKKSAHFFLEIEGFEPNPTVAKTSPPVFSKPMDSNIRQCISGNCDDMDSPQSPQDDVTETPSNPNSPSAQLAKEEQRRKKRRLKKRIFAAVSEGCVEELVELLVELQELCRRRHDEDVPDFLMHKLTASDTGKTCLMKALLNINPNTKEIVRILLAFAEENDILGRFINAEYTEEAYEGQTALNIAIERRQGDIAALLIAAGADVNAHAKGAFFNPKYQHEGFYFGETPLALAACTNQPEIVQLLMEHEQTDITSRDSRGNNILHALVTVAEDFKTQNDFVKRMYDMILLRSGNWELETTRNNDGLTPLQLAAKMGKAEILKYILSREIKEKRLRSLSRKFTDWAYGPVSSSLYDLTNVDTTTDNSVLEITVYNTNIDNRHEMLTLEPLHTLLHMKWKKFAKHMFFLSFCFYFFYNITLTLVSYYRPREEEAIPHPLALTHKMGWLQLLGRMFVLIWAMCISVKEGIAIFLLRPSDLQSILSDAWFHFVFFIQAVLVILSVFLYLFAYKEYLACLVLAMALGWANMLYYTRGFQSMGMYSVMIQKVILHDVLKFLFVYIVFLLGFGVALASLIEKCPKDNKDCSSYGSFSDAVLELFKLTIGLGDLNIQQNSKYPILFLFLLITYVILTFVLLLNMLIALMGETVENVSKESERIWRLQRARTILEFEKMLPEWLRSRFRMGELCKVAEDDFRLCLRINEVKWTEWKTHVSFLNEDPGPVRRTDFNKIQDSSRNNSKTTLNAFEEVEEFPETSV
Experimental: as §1, §2, §3, §4

[5] = tested on: HL-60 human leukemia cells; design: method as in doi:10.1016/j.tetlet.2012.05.162; details: cited from earlier work
[6] = molecular target: T4, human TRPV3 (hTRPV3); design: method as in doi:10.1007/s10600-015-1243-6, doi:10.1016/j.tetlet.2012.12.099; details: determined in the same test system; read-out: EC50, inhibitory activity toward hTRPV3; cited from earlier work
[7] = molecular target: T3, rat TRPA1 (rTRPA1); design: method as in doi:10.1007/s10600-015-1243-6; details: read-out: EC50, inhibition of rTRPA1; cited from earlier work
[8] = molecular target: T1, rat TRPV1 (rTRPV1); design: method as in doi:10.1007/s10600-015-1243-6, doi:10.1016/j.tetlet.2012.12.099; details: determined in the same test system; read-out: EC50, inhibitory activity against rTRPV1; cited from earlier work
[9] = inhibitory activity, CHO cells expressing rTRPV1, agonist 500 nM capsaicin, preincubation 30 min at 37 °C, mean ± s.e., read-out: EC50 (µM) rTRPV1
[10] = inhibitory activity, CHO cells expressing hTRPV3, agonist 200 μM 2APB, preincubation 30 min at 37 °C, mean ± s.e., read-out: EC50 (µM) hTRPV3
[11] = 20 µM RR, positive control, data not shown

Oc1cc2c(cc1O)CN(C(=S)NCCc1ccc(Cl)cc1)CCC2 [CZP, Capsazepine, reference compound]
Inhibition of the [Ca2+] response induced by specific agonist (TRPV1) ([1]; 10 µM CZP, positive control, data not shown): full inhibition

CCC=CC1CCC2(CC3CCC4C(C(=O)OCCCCCCCCCCCCCCCC(=O)N(CCCN)CCCCN)C5(CCCC(C)O5)NC(=[N+]34)N2)O1 (stereo not drawn) [Compound 1, monanchomycalin B]
EC50 [2]: 2.84 ± 1.01 µM
EC50 [1]: 6.02 ± 0.36 µM
EC50 (µM) rTRPA1 [3]: not active
EC50 [4]: 3.25 ± 0.6 µM
Cytotoxic activities against HL-60 human leukemia cells [5]: potent cytotoxic activities

CCC/C=C\CC[C@@H](O)C[C@H]1CCC2=C(C(=O)OCCCCN(O)C(=N)N)[C@H](CC/C=C\CCC)NC(=N)N21 [Compound 2, urupocidin A]
EC50 ([2]; inhibitory activity, CHO cells expressing mTRPV2, agonist 300 μM 2APB, preincubation 30 min at 37 °C, mean ± s.e., read-out: EC50 (µM) mTRPV2): 28.1 ± 6.65 µM
EC50 [1, 9]: 21.5 ± 2.51 µM
EC50 (µM) rTRPA1 [3]: not active
EC50 [4, 10]: 23.6 ± 2.03 µM

CCCCCCC[C@@H](O)C[C@H]1CCC2=C(C(=O)OCCCCN(O)C(=N)N)[C@H](CCCCCCC)NC(=N)N21 [Compound 3, Tetrahydrourupocidin A]
EC50 [1, 9]: 52.8 ± 5.31 µM
EC50 (µM) rTRPA1 [3]: not active
EC50 [4, 10]: 29.2 ± 3.18 µM

CCC/C=C\CC[C@@H](O)C[C@H]1CCC2=C(C(=O)OC)[C@H](CC/C=C\CCC)NC(=N)N21 [Compound 4]
EC50 (µM) rTRPV1 ([1]; inhibitory activity, CHO cells expressing rTRPV1, agonist 500 nM capsaicin, preincubation 30 min at 37 °C, mean ± s.e.): almost not active
EC50 [1, 9]: 435 ± 49.9 µM
EC50 (µM) rTRPA1 [3]: not active
EC50 (µM) hTRPV3 ([4]; inhibitory activity, CHO cells expressing hTRPV3, agonist 200 μM 2APB, preincubation 30 min at 37 °C, mean ± s.e.): almost not active
EC50 [4, 10]: 193 ± 25.5 µM

N.N.N.N.N.N.N.N.N.N.N.N.N.N.[Cl-].[Cl-].[Cl-].[Cl-].[Cl-].[Cl-].[O-2].[O-2].[Ru+3].[Ru+3].[Ru+4] [RR, ruthenium red, reference compound]
Inhibition of the [Ca2+] response induced by specific agonist (TRPV2) [2, 11]: full inhibition
Inhibition of the [Ca2+] response induced by specific agonist (TRPA1) [3, 11]: full inhibition
Inhibition of the [Ca2+] response induced by specific agonist (TRPV3) [4, 11]: full inhibition

C1=C/[C@H]2[C@@H]3CCCC[C@H]3C[C@@H]2NCCCN[C@@H]2C[C@@H]3CCCC[C@H]3[C@@H]2/C=C/1 [haliclonadiamine]
EC50 [6]: 77 µM
EC50 [7]: 86.7 µM
EC50 [8]: 19.9 µM

pulchranin A
EC50 [6]: 71.8 µM
EC50 [7]: 174 µM
EC50 [8]: 27.5 µM
